Test results as given in patent US20240108725A1, “METHOD FOR TREATING CANCER AND SYSTEM FOR SAME” (OTSUKA MEDICAL DEVICES CO., LTD, priority 2020, published 2024).

Test system: TL-Om1 cells
Assay: Rate of dead cells after 5-ALA PDT in erythrocyte solution, TL-Om1 cells, Example 3
Format: cell-based, human
Procedure: C6 cells or human leukemia cell line TL-Oml cells were cultured in 2.5% FBS/F-12K medium (C6 cells) or 10% FBS/RPMI1640 (TL-Oml cells) supplemented with 5-ALA to a final concentration of 0.125 to 0.5 mM in a 5% CO2 incubator at 37° C. for 4 hours. After the culture, the cells were removed with a 0.25% trypsin-EDTA solution, and the collected cells were adjusted to 2×10^7 cells/mL with an erythrocyte solution (a solution in which erythrocytes and PBS were mixed at a ratio of 45:55). The cell suspension thus prepared was injected into a Tygon tube (inner diameter: 0.79 mm), wrapped around a light irradiator, and irradiated with light having a wavelength of 630 nm so that the irradiation energy density was 0.5 to 500 J/cm^2. After the irradiation, an ammonium chloride solution was added to the cell suspension to hemolyze the erythrocytes. Cells before the PDT treatment, after the PDT treatment, and after 24-hour culture were stained with the FITC Annexin V Apoptosis Detection Kit I and the rate of dead cells was analyzed with a flow cytometer.

[1] = 5-ALA 0.125 mM, 10 J/cm^2, 24 hours after irradiation
[2] = 5-ALA 0.125 mM, 50 J/cm^2, 24 hours after irradiation
[3] = 5-ALA 0.125 mM, 100 J/cm^2, 24 hours after irradiation
[4] = 5-ALA 0.125 mM, 200 J/cm^2, 24 hours after irradiation
[5] = 5-ALA 0.125 mM, 300 J/cm^2, 24 hours after irradiation
[6] = 5-ALA 0.125 mM, 400 J/cm^2, 24 hours after irradiation
[7] = 5-ALA 0.125 mM, 500 J/cm^2, 24 hours after irradiation
[8] = 5-ALA 0.25 mM, 1 J/cm^2, 24 hours after irradiation
[9] = 5-ALA 0.25 mM, 1 J/cm^2, immediately after irradiation
[10] = 5-ALA 0.25 mM, 2.5 J/cm^2, 24 hours after irradiation
[11] = 5-ALA 0.25 mM, 2.5 J/cm^2, immediately after irradiation
[12] = 5-ALA 0.25 mM, 5 J/cm^2, 24 hours after irradiation
[13] = 5-ALA 0.25 mM, 5 J/cm^2, immediately after irradiation
[14] = 5-ALA 0.25 mM, 10 J/cm^2, 24 hours after irradiation
[15] = 5-ALA 0.25 mM, 10 J/cm^2, immediately after irradiation
[16] = 5-ALA 0.25 mM, 50 J/cm^2, 24 hours after irradiation
[17] = 5-ALA 0.25 mM, 50 J/cm^2, immediately after irradiation
[18] = 5-ALA 0.25 mM, 100 J/cm^2, 24 hours after irradiation
[19] = 5-ALA 0.25 mM, 100 J/cm^2, immediately after irradiation
[20] = 5-ALA 0.25 mM, 200 J/cm^2, 24 hours after irradiation
[21] = 5-ALA 0.25 mM, 200 J/cm^2, immediately after irradiation
[22] = 5-ALA 0.25 mM, 300 J/cm^2, 24 hours after irradiation
[23] = 5-ALA 0.25 mM, 300 J/cm^2, immediately after irradiation
[24] = 5-ALA 0.25 mM, 400 J/cm^2, 24 hours after irradiation
[25] = 5-ALA 0.25 mM, 400 J/cm^2, immediately after irradiation
[26] = 5-ALA 0.25 mM, 500 J/cm^2, 24 hours after irradiation
[27] = 5-ALA 0.25 mM, 500 J/cm^2, immediately after irradiation
[28] = 5-ALA 0.5 mM, 1 J/cm^2, immediately after irradiation
[29] = 5-ALA 0.5 mM, 2.5 J/cm^2, immediately after irradiation
[30] = 5-ALA 0.5 mM, 5 J/cm^2, immediately after irradiation
[31] = 5-ALA 0.5 mM, 10 J/cm^2, immediately after irradiation
[32] = 5-ALA 0.5 mM, 50 J/cm^2, immediately after irradiation
[33] = 5-ALA 0.5 mM, 100 J/cm^2, immediately after irradiation
[34] = 5-ALA 0.5 mM, 200 J/cm^2, immediately after irradiation
[35] = 5-ALA 0.5 mM, 300 J/cm^2, immediately after irradiation
[36] = 5-ALA 0.5 mM, 400 J/cm^2, immediately after irradiation
[37] = 5-ALA 0.5 mM, 500 J/cm^2, immediately after irradiation

How did the “Annexin V+/PI+ (%)” value [1] turn out when `NCC(=O)CCC(=O)O` [5-ALA, 5-aminolevulinic acid] was run?
The value was 6%.

What about the “Annexin V+/PI− (%)” value [1] of the same compound?
Its value is 4%.

What about the “Annexin V+/PI+ (%)” value [2] of the same compound?
Its value is 6%.

And the “Annexin V+/PI− (%)” value [2]?
The value was 4%.

And the “Annexin V+/PI+ (%)” value [3]?
Its value is 6%.

What about the “Annexin V+/PI− (%)” value [3] of the same compound?
The value was 5%.

What about the “Annexin V+/PI+ (%)” value [4] of the same compound?
Its value is 7%.

What about the “Annexin V+/PI− (%)” value [4] of the same compound?
Its value is 4%.

And the “Annexin V+/PI+ (%)” value [5]?
Its value is 9%.

And the “Annexin V+/PI− (%)” value [5]?
Its value is 4%.

What about the “Annexin V+/PI+ (%)” value [6] of the same compound?
The value was 12%.

What about the “Annexin V+/PI− (%)” value [6] of the same compound?
The value was 8%.

What about the “Annexin V+/PI+ (%)” value [7] of the same compound?
The value was 33%.

What about the “Annexin V+/PI− (%)” value [7] of the same compound?
Its value is 14%.

What about the “Annexin V+/PI+ (%)” value [8] of the same compound?
The value was 4%.

What about the “Annexin V+/PI− (%)” value [8] of the same compound?
Its value is 6%.

What about the “Annexin V−/PI− (%)” value [8] of the same compound?
Its value is 90%.

What about the “Annexin V+/PI+ (%)” value [9] of the same compound?
The value was 8%.

What about the “Annexin V+/PI− (%)” value [9] of the same compound?
The value was 4%.

And the “Annexin V−/PI− (%)” value [9]?
The value was 88%.

What about the “Annexin V+/PI+ (%)” value [10] of the same compound?
The value was 4%.

And the “Annexin V+/PI− (%)” value [10]?
The value was 7%.

What about the “Annexin V−/PI− (%)” value [10] of the same compound?
The value was 89%.

What about the “Annexin V+/PI+ (%)” value [11] of the same compound?
Its value is 6%.

And the “Annexin V+/PI− (%)” value [11]?
The value was 4%.

And the “Annexin V−/PI− (%)” value [11]?
The value was 89%.

What about the “Annexin V+/PI+ (%)” value [12] of the same compound?
Its value is 4%.

And the “Annexin V+/PI− (%)” value [12]?
Its value is 8%.

What about the “Annexin V−/PI− (%)” value [12] of the same compound?
The value was 88%.

What about the “Annexin V+/PI+ (%)” value [13] of the same compound?
Its value is 7%.

And the “Annexin V+/PI− (%)” value [13]?
The value was 4%.

What about the “Annexin V−/PI− (%)” value [13] of the same compound?
The value was 88%.

And the “Annexin V+/PI+ (%)” value [14]?
The value was 6%.

And the “Annexin V+/PI− (%)” value [14]?
The value was 8%.

And the “Annexin V−/PI− (%)” value [14]?
The value was 86%.

And the “Annexin V+/PI+ (%)” value [15]?
The value was 6%.

What about the “Annexin V+/PI− (%)” value [15] of the same compound?
Its value is 4%.

What about the “Annexin V−/PI− (%)” value [15] of the same compound?
The value was 90%.

What about the “Annexin V+/PI+ (%)” value [16] of the same compound?
Its value is 9%.

And the “Annexin V+/PI− (%)” value [16]?
The value was 9%.

And the “Annexin V−/PI− (%)” value [16]?
Its value is 83%.

What about the “Annexin V+/PI+ (%)” value [17] of the same compound?
Its value is 8%.

And the “Annexin V+/PI− (%)” value [17]?
Its value is 4%.

What about the “Annexin V−/PI− (%)” value [17] of the same compound?
Its value is 87%.

And the “Annexin V+/PI+ (%)” value [18]?
The value was 10%.

And the “Annexin V+/PI− (%)” value [18]?
Its value is 8%.

And the “Annexin V−/PI− (%)” value [18]?
The value was 83%.

And the “Annexin V+/PI+ (%)” value [19]?
Its value is 10%.

What about the “Annexin V+/PI− (%)” value [19] of the same compound?
Its value is 4%.

And the “Annexin V−/PI− (%)” value [19]?
Its value is 85%.

And the “Annexin V+/PI+ (%)” value [20]?
Its value is 11%.

And the “Annexin V+/PI− (%)” value [20]?
Its value is 10%.

What about the “Annexin V−/PI− (%)” value [20] of the same compound?
Its value is 79%.

And the “Annexin V+/PI+ (%)” value [21]?
Its value is 12%.

What about the “Annexin V+/PI− (%)” value [21] of the same compound?
Its value is 5%.

What about the “Annexin V−/PI− (%)” value [21] of the same compound?
The value was 82%.

What about the “Annexin V+/PI+ (%)” value [22] of the same compound?
The value was 14%.

What about the “Annexin V+/PI− (%)” value [22] of the same compound?
The value was 11%.

What about the “Annexin V−/PI− (%)” value [22] of the same compound?
The value was 75%.

And the “Annexin V+/PI+ (%)” value [23]?
The value was 13%.

And the “Annexin V+/PI− (%)” value [23]?
The value was 4%.

And the “Annexin V−/PI− (%)” value [23]?
The value was 82%.

And the “Annexin V+/PI+ (%)” value [24]?
The value was 34%.

And the “Annexin V+/PI− (%)” value [24]?
Its value is 16%.

What about the “Annexin V−/PI− (%)” value [24] of the same compound?
Its value is 50%.

And the “Annexin V+/PI+ (%)” value [25]?
The value was 18%.

What about the “Annexin V+/PI− (%)” value [25] of the same compound?
The value was 4%.

And the “Annexin V−/PI− (%)” value [25]?
Its value is 77%.

And the “Annexin V+/PI+ (%)” value [26]?
The value was 72%.

What about the “Annexin V+/PI− (%)” value [26] of the same compound?
The value was 21%.

What about the “Annexin V−/PI− (%)” value [26] of the same compound?
Its value is 7%.

What about the “Annexin V+/PI+ (%)” value [27] of the same compound?
Its value is 33%.

What about the “Annexin V+/PI− (%)” value [27] of the same compound?
The value was 3%.

And the “Annexin V−/PI− (%)” value [27]?
The value was 63%.

What about the “Annexin V+/PI+ (%)” value [28] of the same compound?
Its value is 7%.

What about the “Annexin V+/PI− (%)” value [28] of the same compound?
Its value is 3%.

And the “Annexin V−/PI− (%)” value [28]?
Its value is 89%.

What about the “Annexin V+/PI+ (%)” value [29] of the same compound?
Its value is 5%.

And the “Annexin V+/PI− (%)” value [29]?
The value was 2%.

What about the “Annexin V−/PI− (%)” value [29] of the same compound?
The value was 92%.

And the “Annexin V+/PI+ (%)” value [30]?
Its value is 7%.

What about the “Annexin V+/PI− (%)” value [30] of the same compound?
The value was 3%.

And the “Annexin V−/PI− (%)” value [30]?
The value was 90%.

What about the “Annexin V+/PI− (%)” value [31] of the same compound?
The value was 3%.

And the “Annexin V−/PI− (%)” value [31]?
Its value is 89%.

What about the “Annexin V+/PI− (%)” value [32] of the same compound?
The value was 3%.

What about the “Annexin V−/PI− (%)” value [32] of the same compound?
Its value is 83%.

What about the “Annexin V+/PI− (%)” value [33] of the same compound?
Its value is 3%.

And the “Annexin V−/PI− (%)” value [33]?
The value was 80%.

What about the “Annexin V+/PI− (%)” value [34] of the same compound?
Its value is 3%.

What about the “Annexin V−/PI− (%)” value [34] of the same compound?
The value was 78%.

What about the “Annexin V+/PI+ (%)” value [35] of the same compound?
The value was 23%.

What about the “Annexin V+/PI− (%)” value [35] of the same compound?
The value was 3%.

What about the “Annexin V−/PI− (%)” value [35] of the same compound?
Its value is 72%.

And the “Annexin V+/PI+ (%)” value [36]?
Its value is 32%.

What about the “Annexin V+/PI− (%)” value [36] of the same compound?
The value was 3%.

And the “Annexin V−/PI− (%)” value [36]?
The value was 61%.

And the “Annexin V+/PI+ (%)” value [37]?
Its value is 62%.

And the “Annexin V+/PI− (%)” value [37]?
The value was 2%.

What about the “Annexin V−/PI− (%)” value [37] of the same compound?
The value was 30%.
